# Laboratory results: ChEMBL document CHEMBL1201862, “PubChem BioAssay data set” (2004)
# Active and inactive are the calls of the source.
# What was measured:
# [1] = cytotoxicity toward NIH3T3 fibroblasts, dose response, counter-screen, cell-based, ATP luminescence, mouse fibroblasts (AID 2010); format: functional;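 further: cells exposed to compound for about 90 hours before reading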
# [2] = inhibitors of intracellular T. cruzi replication, confirmation, NIH3T3 host cells, beta-gal luminescence (AID 2044); format: functional, cell-based;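 further: intracellular parasites grown in NIH/3T3 mouse fibroblasts as host cells; luminescent beta-galactosidase reporter signal from transgenic T. cruzi replicating inside host cells; inhibitors lower the luminescence signal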
# Cytochrome P450 2C19 = Cytochrome P450 2C19 (Homo sapiens, UniProt P33261); assay: Cytochrome panel assay with activity outcomes. Panel member name: p450-cyp2c19 Compounds with AC50 equal or less than 10 uM are considered active; format: functional
# Chain of Cytochrome P450 2C19 (P33261 whole entry): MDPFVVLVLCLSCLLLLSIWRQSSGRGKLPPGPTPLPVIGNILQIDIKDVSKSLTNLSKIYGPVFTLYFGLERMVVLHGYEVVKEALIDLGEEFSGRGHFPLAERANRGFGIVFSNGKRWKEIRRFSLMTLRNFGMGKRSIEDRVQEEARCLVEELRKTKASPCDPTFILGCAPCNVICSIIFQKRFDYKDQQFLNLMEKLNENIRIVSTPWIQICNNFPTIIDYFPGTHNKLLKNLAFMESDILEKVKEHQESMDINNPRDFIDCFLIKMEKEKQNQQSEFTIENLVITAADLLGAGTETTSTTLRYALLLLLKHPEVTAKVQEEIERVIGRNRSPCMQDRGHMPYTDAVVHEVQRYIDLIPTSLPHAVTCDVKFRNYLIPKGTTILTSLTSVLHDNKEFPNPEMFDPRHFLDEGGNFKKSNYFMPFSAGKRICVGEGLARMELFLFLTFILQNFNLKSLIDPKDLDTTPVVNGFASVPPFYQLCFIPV
# Streptokinase A = molecular target: T1, Streptokinase A (Streptococcus pyogenes serotype M1, UniProt P10520); assay: S. pyogenes streptokinase expression inhibitors, potency, dose response, plasminogen activation absorbance, OD405 (AID 1914); format: functional, Streptococcus pyogenes M1 GAS;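 further: secreted streptokinase activity via plasminogen activation per viability signal from cell pellet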
# T1 sequence (P10520 whole entry): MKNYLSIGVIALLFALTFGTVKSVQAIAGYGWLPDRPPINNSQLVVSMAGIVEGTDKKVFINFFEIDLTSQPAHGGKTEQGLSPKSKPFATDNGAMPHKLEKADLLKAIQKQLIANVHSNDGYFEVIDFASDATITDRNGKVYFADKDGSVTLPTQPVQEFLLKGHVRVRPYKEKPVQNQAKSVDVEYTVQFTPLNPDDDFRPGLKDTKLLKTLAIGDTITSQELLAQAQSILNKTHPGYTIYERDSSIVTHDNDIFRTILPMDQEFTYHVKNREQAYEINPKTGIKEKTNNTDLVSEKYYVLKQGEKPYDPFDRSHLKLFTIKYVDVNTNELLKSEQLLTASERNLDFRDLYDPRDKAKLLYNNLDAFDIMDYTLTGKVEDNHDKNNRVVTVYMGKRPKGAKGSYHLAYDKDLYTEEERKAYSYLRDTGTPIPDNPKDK
# Streptococcus = assay: Group A Streptococcus viability loss, dose response, counter-screen for streptokinase expression inhibitor project, luminescence, BacTiterGlo (AID 1915); format: functional, organism-based;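 further: potency for reduction of bacterial viability or growth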
# [3] = tested on: Streptococcus sp. 'group A'; assay: growth inhibition of control SK(-) GAS strain, dose response, counter-screen for streptokinase expression inhibitor project, luminescence, kanamycin, BacTiterGlo, confirmation (AID 1900); format: functional, organism-based
SMILES,EC50 (Streptokinase A),EC50 (Streptococcus),EC50 [3],also measured
Cc1ccc(C)c(NC(=S)N2CCC(c3nc4ccccc4s3)CC2)c1,–,–,–,EC50 [1]: > 30 µM (not active); EC50 [2]: 3.67 µM (active)
CCOC(=O)C1CN(S(=O)(=O)c2cccc(C(F)(F)F)c2)c2cc(CC(=O)OC)ccc2O1 (centres undefined),–,–,–,AC50 (Cytochrome P450 2C19; read-out: AC50): 0.282 µM (inconclusive)
COc1ccc(C(C(=O)NC(C)(C)C)N(C(=O)CNC(=O)c2cccs2)c2ccc(C)cc2)cc1OC (centres undefined),–,–,–,AC50 (Cytochrome P450 2C19; read-out: AC50): 17.8 µM (inconclusive)
COc1cc(CN2CCCC(C(=O)c3ccccc3SC)C2)cc(OC)c1 (centres undefined),–,–,–,EC50 [1]: > 60 µM (not active); EC50 [2]: 0.557 µM (active)
Cc1ccc(Cn2c(O)c(N=NC(S)=Nc3ccccc3F)c3ccccc32)cc1,–,–,–,EC50 [1]: 17.4 µM (active); EC50 [2]: 0.886 µM (active)
Nc1nc(Nc2ccc(Cl)cc2)nc(NCc2ccco2)c1[N+](=O)[O-],> 150 µM (not active),26.4 µM (inconclusive),7.12 µM (active),–
CCCc1nnc(NC(=O)Cn2cnc3ccccc3c2=O)s1,–,–,–,AC50 (Cytochrome P450 2C19; read-out: AC50): 25.1 µM (inconclusive)
Cc1cccc(OCCCCc2c(C)n[nH]c2C)c1C,–,17 µM (active),6.66 µM (active),–
Cc1ccc(NC(=O)CCC(=O)NNS(=O)(=O)c2ccccc2)c(C)c1,–,–,–,AC50 (Cytochrome P450 2C19; read-out: AC50): 17.8 µM (inconclusive)
CCn1ccnc1CN1CCc2c([nH]c3ccccc23)C1C1CCCCC1 (centres undefined),42.1 µM (active),29.3 µM (active),5.53 µM (active),–
O=C(NCc1ccccc1)C(=O)Nc1nc(-c2ccccc2)cs1,> 150 µM (not active),14.1 µM (active),5.38 µM (active),–
N#Cc1c(N2CCOCC2)nc(N2CCCCC2)c2c1CCN(C1CCCCC1)C2,–,–,–,EC50 [1]: > 30 µM (not active); EC50 [2]: 0.251 µM (active)
CCN(CC)CCN(C(=O)CCS(=O)(=O)c1ccccc1)c1nc2cc3c(cc2s1)OCO3,–,–,–,EC50 [1]: > 60 µM (not active); EC50 [2]: 0.794 µM (active)
Cc1oc(-c2ccc(F)cc2)nc1CN(Cc1ccccn1)CC1CCCO1 (centres undefined),> 150 µM (not active),> 150 µM (not active),30.4 µM (active),–
CN(C)CCCN(C(=O)CCc1ccccc1)c1nc2c(F)cccc2s1,–,–,–,EC50 [1]: > 30 µM (not active); EC50 [2]: 0.819 µM (active)
CCOc1ccc(NC(=O)CC2C(=O)N(C)C(=S)N2CCCc2ccccc2)cc1 (centres undefined),–,–,–,EC50 [1]: > 60 µM (not active); EC50 [2]: 2.4 µM (active)
COc1ccccc1CN1CC(C(=O)NCc2ncccc2C)CCC1=O (centres undefined),> 150 µM (not active),> 150 µM (not active),> 150 µM (not active),–
Cc1cccc(OCC(=O)Nc2ccc(C(=O)Nc3ccccc3C(=O)O)cc2)c1C,> 150 µM (not active),> 150 µM (not active),6.06 µM (active),–
Cc1c(Br)c([N+](=O)[O-])nn1CC(=O)NCc1ccccn1,–,–,–,AC50 (Cytochrome P450 2C19): inconclusive
CO[C@@H]1COC(=O)[C@H]2CCCN2C(=O)C/C=C\[C@@H](C)[C@H](OC)COC(=O)[C@H]2CCCN2C(=O)C/C=C\[C@H]1C,–,–,–,AC50 (Cytochrome P450 2C19): inconclusive
O=C(O)CCCCCCCCc1cn(Cc2ccc(C(=O)c3ccccc3)cc2)nn1,–,–,–,EC50 [1]: 6.22 µM (active); EC50 [2]: > 60 µM (not active)
Cc1ccccc1-c1cc(-c2ccccc2O)[nH]n1,–,> 150 µM (not active),9.25 µM (active),–
Cc1ccccc1-c1cc(-c2ccccc2O)n[nH]1,66.2 µM (inconclusive),–,–,–
Cc1[nH]c(-c2ccc(F)cc2)cc1C(=O)N1CCN(c2cccc(Cl)c2)CC1,> 150 µM (not active),11.8 µM (active),3.8 µM (active),–
CN(C)c1ccc(/C=C/c2c([N+](=O)[O-])c(=O)n(C)c(=O)n2C)cc1,> 150 µM (not active),18.3 µM (active),5.75 µM (active),–
CC(C)Cn1c(=O)c(C(=O)N/N=C/c2cccc(F)c2)c(O)c2ccccc21,–,3.69 µM (active),1.28 µM (active),–
C/N=C(N)/N=C(\N)Nc1cc2ccccc2c2ccccc12,–,–,–,AC50 (Cytochrome P450 2C19; read-out: AC50): 3.98 µM (inconclusive)
